Measured values: patent US9694002B2, “Substituted benzamides and methods of use thereof” (GENENTECH, INC., priority 2013, dated 2017)
Counter-ions that a name gives are not always drawn.

What follows are compounds tested against hNav1.7 (Homo sapiens (Human), UniProt Q15858) (assay: Ligand binding assay: tritiated sulfonamide binding to membranes from cells expressing hNav1.7 and the β1 subunit). Conditions: not given.
hNav1.7, sequence (Q15858 whole entry): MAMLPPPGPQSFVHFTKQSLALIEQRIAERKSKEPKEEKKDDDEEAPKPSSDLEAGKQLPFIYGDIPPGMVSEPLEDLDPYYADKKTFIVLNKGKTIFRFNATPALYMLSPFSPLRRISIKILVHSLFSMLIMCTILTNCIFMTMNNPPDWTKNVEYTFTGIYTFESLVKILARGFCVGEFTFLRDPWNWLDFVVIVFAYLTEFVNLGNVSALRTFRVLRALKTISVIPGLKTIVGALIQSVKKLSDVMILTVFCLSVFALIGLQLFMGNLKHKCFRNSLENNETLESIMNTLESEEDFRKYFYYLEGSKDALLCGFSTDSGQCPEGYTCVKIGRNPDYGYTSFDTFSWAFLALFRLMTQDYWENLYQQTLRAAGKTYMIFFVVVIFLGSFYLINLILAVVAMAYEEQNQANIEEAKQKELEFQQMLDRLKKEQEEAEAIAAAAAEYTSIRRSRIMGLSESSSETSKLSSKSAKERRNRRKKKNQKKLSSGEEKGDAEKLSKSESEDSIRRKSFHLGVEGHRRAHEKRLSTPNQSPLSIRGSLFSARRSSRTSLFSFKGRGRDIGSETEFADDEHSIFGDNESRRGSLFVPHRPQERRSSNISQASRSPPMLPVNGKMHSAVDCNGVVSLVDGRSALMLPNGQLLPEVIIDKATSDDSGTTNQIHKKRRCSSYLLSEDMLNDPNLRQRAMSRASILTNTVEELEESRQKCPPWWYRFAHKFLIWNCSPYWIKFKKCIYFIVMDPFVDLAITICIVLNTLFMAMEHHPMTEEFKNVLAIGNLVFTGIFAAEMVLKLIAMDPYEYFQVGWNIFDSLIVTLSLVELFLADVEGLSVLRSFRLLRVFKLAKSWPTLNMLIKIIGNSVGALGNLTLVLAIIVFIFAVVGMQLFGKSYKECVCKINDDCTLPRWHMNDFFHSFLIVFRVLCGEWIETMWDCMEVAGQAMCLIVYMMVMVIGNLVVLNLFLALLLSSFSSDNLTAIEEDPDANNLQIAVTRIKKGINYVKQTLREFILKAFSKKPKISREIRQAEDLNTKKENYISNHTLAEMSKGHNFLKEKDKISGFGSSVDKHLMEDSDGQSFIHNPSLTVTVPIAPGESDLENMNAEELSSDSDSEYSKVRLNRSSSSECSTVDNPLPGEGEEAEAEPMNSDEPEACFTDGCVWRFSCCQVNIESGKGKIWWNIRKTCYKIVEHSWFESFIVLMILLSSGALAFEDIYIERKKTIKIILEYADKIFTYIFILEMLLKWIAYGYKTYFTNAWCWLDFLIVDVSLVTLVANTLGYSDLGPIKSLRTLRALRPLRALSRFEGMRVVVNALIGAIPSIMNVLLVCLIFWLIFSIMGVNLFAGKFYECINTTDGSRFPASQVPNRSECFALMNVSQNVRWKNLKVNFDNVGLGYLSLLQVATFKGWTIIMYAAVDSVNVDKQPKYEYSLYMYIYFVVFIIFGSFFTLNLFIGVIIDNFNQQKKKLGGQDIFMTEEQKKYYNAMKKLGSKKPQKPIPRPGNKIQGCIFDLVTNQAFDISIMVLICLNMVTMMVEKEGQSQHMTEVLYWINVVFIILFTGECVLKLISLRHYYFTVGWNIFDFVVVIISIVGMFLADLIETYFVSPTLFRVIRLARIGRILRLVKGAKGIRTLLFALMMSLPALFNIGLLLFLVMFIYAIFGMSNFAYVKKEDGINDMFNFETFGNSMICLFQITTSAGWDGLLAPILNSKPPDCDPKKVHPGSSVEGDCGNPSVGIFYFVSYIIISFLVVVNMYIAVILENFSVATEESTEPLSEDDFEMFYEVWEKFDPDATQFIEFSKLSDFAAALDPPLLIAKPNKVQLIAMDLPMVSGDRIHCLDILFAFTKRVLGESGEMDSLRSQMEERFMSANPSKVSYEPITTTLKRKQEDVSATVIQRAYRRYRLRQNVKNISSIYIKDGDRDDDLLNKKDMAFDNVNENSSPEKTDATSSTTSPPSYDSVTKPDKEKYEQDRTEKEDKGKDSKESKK
hNav1.7, sequence (Q07699 19-218 partner): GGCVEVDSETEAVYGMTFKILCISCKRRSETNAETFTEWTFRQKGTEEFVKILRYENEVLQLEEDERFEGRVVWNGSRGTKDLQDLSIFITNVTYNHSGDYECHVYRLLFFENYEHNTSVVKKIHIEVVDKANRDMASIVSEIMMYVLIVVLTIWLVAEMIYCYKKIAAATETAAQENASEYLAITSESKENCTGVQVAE

Compound	IC50 [nM]
CS(=O)(=O)NC(=O)c1cc(C2CC2)c(CN2CCN(S(=O)(=O)c3cc(Cl)cc(Cl)c3)CC2)cc1F [Example 526, 5-cyclopropyl-4-((4-((3,5-dichlorophenyl)sulfonyl)piperazin-1-yl)methyl)-2-fluoro-N-(methylsulfonyl)benzamide, trifluoroacetic acid salt]	20.2

Same assay, conditions: read-out: Ligand Binding Assay; competition with 100 pM [3H]compound, membranes with hNav1.7 and β1 subunit, room temperature, 18 h

Compound	IC50 [nM]
(S)-5-cyclopropyl-4-((1-(1-(3,5-dichlorophenyl)ethyl)-4-fluoropiperidin-4-yl)methoxy)-2-fluoro-N-(methylsulfonyl)benzamide, trifluoroacetic acid salt [Example 349]	4
CS(=O)(=O)NC(=O)c1cc(C2CC2)c(OCC2CCN(Cc3cccc(Cl)c3)CC2)cc1F [Example 92, 4-((1-(3-Chlorobenzyl)piperidin-4-yl)methoxy)-5-cyclopropyl-2-fluoro-N-(methylsulfonyl)benzamide]	30.5
(R)-5-cyclopropyl-4-((1-(3,5-dichlorobenzyl)-2-oxopiperidin-4-yl)methoxy)-2-fluoro-N-(methylsulfonyl)benzamide [Example 234]	170
(S)-5-cyclopropyl-N-(cyclopropylsulfonyl)-4-((1-(1-(3,5-dichlorophenyl)ethyl)-4-fluoropiperidin-4-yl)methoxy)-2-fluorobenzamide [Example 350]	4.5
C[C@@H](c1cc(Cl)cc(Cl)c1)N1CCC[C@@H](Oc2cc(F)c(C(=O)NS(C)(=O)=O)cc2C2CC2)C1 [Example 50]	1.9
C[C@@H](c1cc(Cl)cc(Cl)c1)N1CCC(COc2cc(F)c(C(=O)NS(=O)(=O)C3CC3)cc2C2CC2)CC1 (single isomer, unassigned) [Example 270]	5
C[C@@H]1CC[C@@H](COc2cc(F)c(C(=O)NS(C)(=O)=O)cc2C2CC2)CN1[C@@H](C)c1cc(Cl)cc(Cl)c1 (single isomer, unassigned) [Example 342, trifluoroacetic acid salt]	5.7
O=C(NS(=O)(=O)C1CC1)c1cc(Cl)c(O[C@@H]2CCCN(Cc3ccc(F)cc3Cl)C2)cc1F [Example 39, (R)-5-chloro-4-((1-(2-chloro-4-fluorobenzyl)piperidin-3-yl)oxy)-N-(cyclopropylsulfonyl)-2-fluorobenzamide, trifluoroacetic acid salt]	6.8
CS(=O)(=O)NC(=O)c1cc(C2CC2)c(OCC2CCN(S(=O)(=O)C3COC3)CC2)cc1F [Example 392, 5-cyclopropyl-2-fluoro-N-(methylsulfonyl)-4-((1-(oxetan-3-ylsulfonyl)piperidin-4-yl)methoxy)benzamide]	2060
C[C@H](c1cc(Cl)cc(Cl)c1)N1CCC[C@H](COc2cc(F)c(C(=O)NS(C)(=O)=O)cc2C2CC2)C1 (single isomer, unassigned) [Example 337, trifluoroacetic acid salt]	11.1
O=C(NS(=O)(=O)C1CC1)c1cc(C2CC2)c(CN2CCC(Oc3ccc(C(F)(F)F)cn3)CC2)cc1F [Example 477, 5-cyclopropyl-N-(cyclopropylsulfonyl)-2-fluoro-4-((4-((5-(trifluoromethyl)pyridin-2-yl)oxy)piperidin-1-yl)methyl)benzamide, trifluoroacetic acid salt]	14.2
C[C@@H](c1cc(Cl)cc(Cl)c1)N1CCC[C@H](COc2cc(F)c(C(=O)NS(C)(=O)=O)cc2C2CC2)C1 (single isomer, unassigned) [Example 338, trifluoroacetic acid salt]	7.4

These compounds were tested against NaV1.7 (Homo sapiens (Human), UniProt Q15858) (assay: Electrophysiological assay (EP), patch voltage clamp, NaV1.7). Conditions: HEK-293 cells stably expressing human NaV1.7 with β1 subunit, whole-cell patch clamp, held at −60 mV (inactivated state).
NaV1.7, sequence (Q15858 other isoform, or with tags, fused parts or gaps): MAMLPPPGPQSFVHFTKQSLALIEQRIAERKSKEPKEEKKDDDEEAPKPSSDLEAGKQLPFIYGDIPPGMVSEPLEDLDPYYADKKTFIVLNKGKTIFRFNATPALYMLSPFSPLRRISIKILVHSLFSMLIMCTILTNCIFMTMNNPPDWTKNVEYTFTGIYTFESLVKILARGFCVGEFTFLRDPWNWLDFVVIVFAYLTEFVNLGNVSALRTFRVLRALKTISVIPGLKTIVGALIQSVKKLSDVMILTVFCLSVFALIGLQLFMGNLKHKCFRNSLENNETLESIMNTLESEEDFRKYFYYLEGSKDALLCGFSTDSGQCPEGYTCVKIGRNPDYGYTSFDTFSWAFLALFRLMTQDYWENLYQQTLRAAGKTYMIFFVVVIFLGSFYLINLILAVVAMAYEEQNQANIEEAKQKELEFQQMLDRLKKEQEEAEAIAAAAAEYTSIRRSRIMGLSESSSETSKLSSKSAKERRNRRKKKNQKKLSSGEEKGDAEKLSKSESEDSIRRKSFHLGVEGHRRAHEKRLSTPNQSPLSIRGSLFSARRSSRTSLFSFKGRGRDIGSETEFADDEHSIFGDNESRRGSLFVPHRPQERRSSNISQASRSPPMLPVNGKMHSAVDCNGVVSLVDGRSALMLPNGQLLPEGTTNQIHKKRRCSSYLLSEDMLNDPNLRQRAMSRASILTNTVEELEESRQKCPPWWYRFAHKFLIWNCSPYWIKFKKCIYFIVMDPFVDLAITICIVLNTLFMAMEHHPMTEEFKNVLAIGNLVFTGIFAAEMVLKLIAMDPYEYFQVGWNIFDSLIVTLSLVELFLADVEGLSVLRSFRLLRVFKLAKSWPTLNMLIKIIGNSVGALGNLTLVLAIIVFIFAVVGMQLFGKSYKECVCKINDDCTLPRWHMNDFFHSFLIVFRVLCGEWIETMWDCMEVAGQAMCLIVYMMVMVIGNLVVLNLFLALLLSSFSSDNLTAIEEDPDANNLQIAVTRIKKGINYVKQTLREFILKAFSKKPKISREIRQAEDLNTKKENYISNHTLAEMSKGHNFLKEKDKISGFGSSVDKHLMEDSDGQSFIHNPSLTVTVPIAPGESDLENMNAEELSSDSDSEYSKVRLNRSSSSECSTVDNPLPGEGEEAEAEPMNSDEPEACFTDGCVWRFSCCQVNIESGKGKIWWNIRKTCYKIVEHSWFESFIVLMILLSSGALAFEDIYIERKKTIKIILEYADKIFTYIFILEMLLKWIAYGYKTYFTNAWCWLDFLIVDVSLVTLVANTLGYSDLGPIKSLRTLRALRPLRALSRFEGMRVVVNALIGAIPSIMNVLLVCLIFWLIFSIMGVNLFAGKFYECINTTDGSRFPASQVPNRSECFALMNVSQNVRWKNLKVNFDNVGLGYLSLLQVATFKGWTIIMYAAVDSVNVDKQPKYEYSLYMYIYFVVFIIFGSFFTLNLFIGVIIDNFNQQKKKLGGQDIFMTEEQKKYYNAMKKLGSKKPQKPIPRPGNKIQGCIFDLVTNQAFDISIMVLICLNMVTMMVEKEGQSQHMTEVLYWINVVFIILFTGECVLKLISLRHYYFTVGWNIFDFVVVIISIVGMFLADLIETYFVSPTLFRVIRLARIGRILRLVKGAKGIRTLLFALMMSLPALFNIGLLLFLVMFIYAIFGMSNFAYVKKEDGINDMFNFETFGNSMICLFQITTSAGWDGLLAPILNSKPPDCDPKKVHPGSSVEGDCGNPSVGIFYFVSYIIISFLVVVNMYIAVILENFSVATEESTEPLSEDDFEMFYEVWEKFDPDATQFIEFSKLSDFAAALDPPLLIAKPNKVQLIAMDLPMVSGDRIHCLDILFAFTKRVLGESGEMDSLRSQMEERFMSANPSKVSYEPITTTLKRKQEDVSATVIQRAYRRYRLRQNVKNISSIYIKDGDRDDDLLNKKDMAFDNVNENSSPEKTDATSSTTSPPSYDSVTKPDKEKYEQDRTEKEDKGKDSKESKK
NaV1.7, sequence (Q07699 19-218 partner): as the sequence (Q07699 19-218 partner) above
Assay type: cell-based
Description: NaV1.7 and NaV1.5 cDNAs (NM_002977 and AG 137587; SCN5A, respectively) were stably expressed in HEK-293 cells.
Control sodium currents were measured in 0.5% DMSO.
Series resistance compensation was applied (60-80%).

Compound	IC50 [nM]
C[C@@H](c1cc(Cl)cc(Cl)c1)N1CCC(COc2cc(F)c(C(=O)NS(=O)(=O)C3CC3)cc2C2CC2)CC1 (single isomer, unassigned) [Example 270]	5.8
